Data on two compounds can be found in patent US20090274773A1, “ANTIPROLIFERATIVE COMBINATION COMPRISING CYC-682 AND A CYTOTOXIC AGENT” (Cyclacel Limited, priority 2005, published 2009).

SMILES strings stand for the structures.

What all share (format): cell-based, human
One assay concerns COLO205. Nature of the assay: MTT growth inhibition assay, single agent. The conditions noted are these: Homo sapiens, COLO 205, 24 hours exposure, read-out: Antiproliferative effects IC50s (MTT assay). How it is done: (§1) All cell lines were obtained from the ATCC (Rockville, Md.). Cells were grown as monolayers in RPMI medium supplemented with 10% fetal calf serum (Invitrogen, Cergy-Pontoise, France), 2 mM glutamine, 100 units/ml penicillin and 100 μg/ml streptomycin. All cells were split twice a week using trypsin/EDTA (0.25% and 0.02%, respectively; Invitrogen, Cergy-Pontoise, France) and seeded at a concentration of 2.5×10^4 cells/ml. All cell lines were tested regularly for Mycoplasma contamination by PCR using a Stratagene kit (La Jolla, Calif.).
(§2) The MTT assay was carried out as described previously (Hansen M B, Nielsen S E, Berg K. Re-examination and further development of a precise and rapid dye method for measuring cell growth/cell kill. J Immunol Methods. 1989 May 12; 119(2):203-10). In brief, cells were seeded in 96-well tissue culture plates at a density of 2×10^3 cells/well. Cell viability was determined after a 120-hour incubation, by the calorimetric conversion of yellow, water-soluble tetrazolium MTT (3-[4,5-dimethylthiazol-2-yl]-2,5-diphenyltetrazolium bromide; Sigma, Saint-Quentin Fallavier, France), into purple, water-insoluble formazan. This reaction is catalyzed by mitochondrial dehydrogenases and is used to estimate the relative number of viable cells (Mosmann, T, Rapid calorimetric assay for cellular growth and survival: application to proliferation and cytotoxicity assays. J Immunol Methods. 1983 Dec. 16; 65 (1-2):55-63). Cells were incubated with 0.4 mg/ml MTT for 4 hours at 37° C. After incubation, the supernatant was discarded, the cell pellet was resuspended in 0.1 ml of DMSO and the absorbance was measured at 560 nm using a microplate reader (Dynatech, Michigan). Wells with untreated cells or with drug-containing medium without cells were used as positive and negative controls, respectively. Growth inhibition curves were plotted as a percentage of untreated control cells.
(§3) The cells were seeded at 2×10^3 cells/well in 96-well plates and treated 24 hours later with increasing concentrations of CYC682. After incubation times of 1 hour, 24 hours or 48 hours, the cells were washed and post-incubated in drug-free medium for 72 hours. Growth inhibition was then determined by the MTT assay.
In general terms: Formazan colour is commonly taken as a measure of viable cells.

A further assay concerns HOP92. Nature of the assay: MTT growth inhibition assay, single agent. As to conditions: Homo sapiens, HOP-92, 24 hours exposure, read-out: Antiproliferative effects IC50s (MTT assay). How it is done:
as §1, §2, §3

The next assay concerns HCT116. Nature of the assay: MTT growth inhibition assay, single agent. The conditions noted are these: Homo sapiens, HCT-116, 24 hours exposure, read-out: Antiproliferative effects IC50s (MTT assay). How it is done: as §1, §2, §3
Another assay has as its system HT29. Nature of the assay: MTT growth inhibition assay, single agent. As to conditions: Homo sapiens, HT-29, 24 hours exposure, read-out: Antiproliferative effects IC50s (MTT assay). How it is done: as §1, §2, §3
The next assay deals with MDA-MB-435. Nature of the assay: MTT growth inhibition assay, single agent. As to conditions: Homo sapiens, 24 hours exposure, read-out: Antiproliferative effects IC50s (MTT assay). How it is done:
as §1, §2, §3

In the next assay the test system is HCC2998. Nature of the assay: MTT growth inhibition assay, single agent. The conditions noted are these: Homo sapiens, HCC 2998, 24 hours exposure, read-out: Antiproliferative effects IC50s (MTT assay). How it is done:
as §1, §2, §3

The next assay deals with MCF7. Nature of the assay: MTT growth inhibition assay, single agent. The conditions noted are these: Homo sapiens, 24 hours exposure, read-out: Antiproliferative effects IC50s (MTT assay). How it is done: as §1, §2, §3
Another assay deals with IGROV1. Nature of the assay: MTT growth inhibition assay, single agent. The conditions noted are these: Homo sapiens, IGROV-1, 24 hours exposure, read-out: Antiproliferative effects IC50s (MTT assay). How it is done: as §1, §2, §3
A further assay concerns OVCAR1. Nature of the assay: MTT growth inhibition assay, single agent. As to conditions: Homo sapiens, 24 hours exposure, read-out: Antiproliferative effects IC50s (MTT assay). How it is done: as §1, §2, §3
Another assay has as its system HOP62. Nature of the assay: MTT growth inhibition assay, single agent. The conditions noted are these: Homo sapiens, HOP-62, 24 hours exposure, read-out: Antiproliferative effects IC50s (MTT assay). How it is done:
as §1, §2, §3

The test system of the next assay is NSCLC cell line H1299. Nature of the assay: CNDAC combinations (alamar blue, Calcusyn Combination Index). As to conditions: for Interaction with CNDAC (in words), summary of Table 3: combination with CNDAC, regime not specified; for Combination Index at ED50, Concomitant / Combination Index at ED75, Concomitant / Combination Index at ED90, Concomitant: simultaneous treatment 72 h. How it is done:
Experiments in the NSCLC cell lines H1299 or RERF-LC-MA were performed in 96-well plates, with cells seeded at a density of 3,000/well, in DMEM containing 10% (v/v) FCS. Stock solutions of all drugs were made up in dimethylsulfoxide (DMSO), with the exception of gemcitabine, which was dissolved in 0.9% (w/v) sterile saline solution.
For experimental assessment of potential synergistic interactions, the concomitant treatment regime involved simultaneous treatment of cells with CNDAC and the other agent under investigation for 72 h, alongside suitable controls of cells treated with the individual compounds alone for 72 hr. In the sequential treatment regimes, one drug was added to the cells 2 h after plating, and left for 24 h. Media was then aspirated, replaced with fresh media containing the second drug and incubated for 72 h. The two individual treatment controls for the sequential treatment regime involved substituting one of the drug treatments with drug-free media. […] Drug interactions were analysed using the Calcusyn software package (BioSoft, Cambridge, U.K.) described below.

Where [1] appears, read: named agent in combination with CNDAC, H1299.
[2] abbreviates: named agent in combination with CNDAC, H1299, CNDAC 24 h then other agent 72 h.
[3] abbreviates: named agent in combination with CNDAC, H1299, named agent 24 h then CNDAC 72 h.

Consider `CC(=O)O[C@@]12CO[C@@H]1C[C@H](O)[C@@]1(C)C(=O)[C@H](O)C3=C(C)[C@@H](OC(=O)[C@H](O)[C@@H](NC(=O)OC(C)(C)C)c4ccccc4)C[C@@](O)([C@@H](OC(=O)c4ccccc4)[C@H]21)C3(C)C` [Docetaxel], for which the IC50 in the assay with COLO205 was 6 ± 1 nM; with HOP92, 5 ± 1 nM; with HCT116, 10 ± 20 nM; in the assay with HT29 it was 10 ± 2 nM; in the assay on MDA-MB-435 it was 10 ± 2 nM; in the assay on HCC2998 it was 4 ± 1 nM. Also, the IC50 was determined as 10 ± 4 nM in the assay with MCF7, 20 ± 10 nM with IGROV1, 50000 ± 120 nM with OVCAR1 and 20 ± 40 nM in the assay with HOP62. Besides, the “Interaction with CNDAC (in words), summary of Table 3” value in the assay with NSCLC cell line H1299 was “synergistic drug interactions”. Also, in the assay on NSCLC cell line H1299 (setting [1]), the “Combination Index at ED50, Concomitant” value was 0.93. Also, in the assay on NSCLC cell line H1299 (setting [1]), the “Combination Index at ED75, Concomitant” value is given as 1.13. Also, the “Combination Index at ED90, Concomitant” value in the assay with NSCLC cell line H1299 (setting [1]) is 2.01.

As to `COc1cccc2c1C(=O)c1c(O)c3c(c(O)c1C2=O)C[C@@](O)(C(=O)CO)C[C@@H]3O[C@H]1C[C@H](N)[C@H](O)[C@H](C)O1` [Doxorubicin], the IC50 with COLO205 stood at 1500 ± 500 nM; in the assay with HOP92, 100 ± 50 nM; in the assay with HCT116, 100 ± 20 nM; with HT29 it was 1070 ± 160 nM; in the assay with MDA-MB-435 it was 2000 ± 400 nM; in the assay on HCC2998, 700 ± 140 nM. For the same compound, the IC50 with MCF7 came out at 700 ± 100 nM; in the assay with IGROV1 it was 1300 ± 300 nM; in the assay on OVCAR1 it was 1000 ± 200 nM; in the assay with HOP62, 140 ± 40 nM. Moreover, the “Interaction with CNDAC at ED50 (in words)” value in the assay on NSCLC cell line H1299 (H1299, concomitant treatment) is recorded as “synergy”; in the assay with NSCLC cell line H1299 (H1299, pre-treatment with named agent), “synergy”. Besides, the “Interaction with CNDAC (in words), summary of Table 3” value with NSCLC cell line H1299 is reported as “synergistic drug interactions”. Also, the “Combination Index at ED75, CNDAC pretreatment” value with NSCLC cell line H1299 (setting [2]) was 1.24. The “Combination Index at ED90, CNDAC pretreatment” value in the assay with NSCLC cell line H1299 (setting [2]) is given as 2.23. For the same compound, in the assay on NSCLC cell line H1299 (named agent in combination with CNDAC, H1299, CNDAC 24 h then other agent 72 h, C.I. <1 synergistic, 1 additive, >1 antagonistic), the “Combination Index at ED50, CNDAC pretreatment” value is on record as 0.95. Moreover, in the assay with NSCLC cell line H1299 (setting [3]), the “Combination Index at ED50, Other (named agent) pretreatment” value is 0.64. For the same compound, in the assay on NSCLC cell line H1299 (setting [3]), the “Combination Index at ED75, Other (named agent) pretreatment” value is reported as 0.83. Also, in the assay with NSCLC cell line H1299 (setting [3]), the “Combination Index at ED90, Other (named agent) pretreatment” value was 1.63. Moreover, the “Combination Index at ED50, Concomitant” value with NSCLC cell line H1299 (setting [1]) was 0.63. For the same compound, the “Combination Index at ED75, Concomitant” value in the assay on NSCLC cell line H1299 (setting [1]) is listed as 1.14. In the assay on NSCLC cell line H1299 (setting [1]), the “Combination Index at ED90, Concomitant” value is on record as 2.75.
